In patent US8785416B2, “Sulphated disaccharides for the treatment of neurodegenerative and/or neurovascular diseases” (Bioiberica, S.A., priority 2009, dated 2014):

Key:
Type in all cases: cell-based
[1] = test system: SH-SY5Y human neuroblastoma cells; assay: Generation of intracellular reactive oxygen species (ROS) after hydrogen peroxide, DCFDA fluorescence
Description: To determine the production of free radicals, the fluorescent probe 2″-7″-dichlorodihydrofluorescein diacetate (DCFDA) was used, which is sensitive to the presence of free radicals, such that when the latter are intracellularly generated there is an increase of fluorescence.
When the fluorescent probe passes into the cell, intracellular esterases hydrolyze the probe, transforming it into DCFH2. Peroxidases, cytochrome C and Fe^2+ can oxidize the probe to DCF in the presence of hydrogen peroxide, and the accumulation of DCF in the cell can be measured as an increase of fluorescence at 530 nm when it is excited at 485 nm.
SH-SY5Y human neuroblastoma cells were cultured following the procedure described in Example 3.
For the fluorescence assays, the cells were seeded in 96-well plates with opaque walls at a density of 10,000 cells/well. […]
To evaluate the effects of compound Ic on the generation of ROS, the cells were incubated with increasing concentrations of compound Ic (0.01 and 0.1 μM) for 24 hours and then they were preincubated with the fluorescent probe DCFDA for 45 minutes. Subsequently, the baseline fluorescence of each well, both of the wells containing cells and compound Ic and of those containing only the cells, was quantified. […] The baseline fluorescence of each well containing compound Ic was subtracted from it in order to obtain the net fluorescence. […]

rat hippocampal slices [2] = assay: Oxygen and glucose deprivation (1 hour OGD, 2 hours reoxygenation) in hippocampal slices, LDH release
Method: (§1) Male Spague Dawley strain rats (250-325 g) were used. After anaesthesia by means of an intraperitoneal injection of 60 mg/Kg sodium pentobarbital (Euta-Lender®), they were decapitated with a guillotine and the brain was extracted after a craniotomy. The brain was immediately submersed in a dissection solution, a cold (4° C.) modified Krebs-Henseleit solution at pH 7.4, the composition of which is: 120 mM NaCl, 2 mM KCl, 0.5 mM CaCl2, 26 mM NaHCO3, 10 mM MgSO4, 1.18 mM KH2PO4, 11 mM glucose and 200 mM sucrose, bubbled with 95% O2-5% CO2. The hippocampi were isolated, embedded in 2% low melting point agarose (Sigma-Aldrich), and cut into 350 μm transverse slices in a vibratome (Leica VT1000S).
After the cutting in the vibratome, the slices were transferred to a vial with sucrose-free dissection Krebs solution, bubbled with 95% O2-5% CO2 for 60 minutes (equilibrium period). […]
For the protocol of 1 hour of OGD followed by 2 hours of reoxygenation, the viability was determined by measuring the release of LDH into the extracellular medium according to the method described in Example 3. The quantification of LDH was performed in samples taken (i) after the preincubation period, (ii) after the hour of OGD and (iii) after each hour of reoxygenation (1 hour and 2 hours).

rat hippocampal slices [3] = assay: Oxygen and glucose deprivation (15 minutes OGD, 2 hours reoxygenation) in hippocampal slices, MTT cell viability
Method: as §1
After the cutting in the vibratome, the slices were transferred to a vial with sucrose-free dissection Krebs solution, bubbled with 95% O2-5% CO2 for 60 minutes (equilibrium period).
After the equilibrating period, the medium was removed and an oxygenated solution (normal Krebs solution (120 mM NaCl, 2 mM KCl, 2 mM CaCl2, 26 mM NaHCO3, 1.19 mM MgSO4, 1.18 mM KH2PO4 and 11 mM glucose), bubbled with 5% CO2 and 95% O2 for 30 minutes (preincubation period), was introduced. The baseline slices were maintained in this oxygenated solution throughout the entire experiment. To induce OGD, the oxygenated solution was replaced with another one which lacked glucose and was bubbled with a mixture of gases of 5% CO2 and 95% N2 (anoxic solution). The slices were in a bath at 37° C. After inducing OGD, the anoxic medium was replaced with another one which contained the oxygenated solution (reoxygenation period).
To evaluate the effect of the compounds, they were incubated for the 30 minutes of the preincubation and throughout the OGD and during the reoxygenation. Two OGD-reoxygenation protocols were used: (i) 1 hour of OGD and 2 hours of reoxygenation and (ii) 15 minutes of OGD followed by 2 hours of reoxygenation.
When the OGD-reoxygenation protocol (ii): 15 minutes of OGD followed by 2 hours of reoxygenation was used, the slices were incubated with increasing concentrations of compound Ic (0.3 and 1 μM) or with increasing concentrations of compound Ib (1 and 3 μM). In the same study these two compounds of the invention were compared with N-acetylcysteine (NAC) at 10 mM. The baseline (slices in the absence of compound Ic or Ib and of OGD) and the control (slices in the absence of compound Ic or Ib and with OGD) were also included.
For the protocol of 15 minutes of OGD followed by 2 hours of reoxygenation, the cell viability was evaluated by means of the tetrazolium salt MTT, which is internalized in those cells which are viable and are therefore capable of reducing the tetrazolium to formazan which is an insoluble and coloured product which is deposited in the […]. To that end, after the experiment had ended, the hippocampal slices were incubated with MTT at a final concentration of 0.5 mg/mL in a Krebs-HEPES solution (in mM: NaCl, 144; KCl, 5.9; MgCl2, 1.2; CaCl2, 2; HEPES, 10; glucose, 11; at pH 7.3) at 37° C. After 3 hours, the medium was removed and the formazan precipitated in the solution was dissolved in dimethylsulfoxide. Then, the absorbance was measured in a plate reader (Labsystems iEMS Reader MF), at 500 nm. The data were represented taking the result of the baseline slices, i.e., those not subjected to OGD, as 100% viability.

methyl 2-acetamido-2-deoxy-3-O-(β-D-glucopyranosyluronic acid)-4,6-di-O-sulpho-α-D-glucopyranoside, trisodium salt [compound Ic]
reduction in the formation of free radicals induced by hydrogen peroxide ([1]; 0.1 μM, 24 hours incubation before 50 μM hydrogen peroxide): 40% | ROS generated by hydrogen peroxide at 30 and 60 minutes ([1]; cells treated 24 hours with compound (0.01 and 0.1 μM) before 50 μM hydrogen peroxide): significantly reduced | protective effect against cell death (LDH release) (rat hippocampal slices [2]; 1 μM, at 2 hours of reoxygenation after 1 hour OGD): 40% | effect on cell death after one hour of OGD followed by 2 hours of reoxygenation (rat hippocampal slices [2]; 1 and 10 μM): reduced cell death in a concentration-dependent | maximum statistically significant protection (cell viability, MTT) (rat hippocampal slices [3]; 1 μM, 15 minutes OGD, 2 hours reoxygenation, baseline 100%, control 67%): 93% | efficacy in comparison with N-acetylcysteine (rat hippocampal slices [3]; Ic 0.3 and 1 μM, Ib 1 and 3 μM vs N-acetylcysteine 10 mM): higher efficacy
